From patent publication US6737383B1, “Herbicidal oxadiazolidines” (priority 1999, dated 2004)

Legend:
bedstraw = assay: Test B pre/postemergence bedstraw; format: in vivo, Galium aparine
Procedure, shortened: (§1)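 Herbicidal effect was estimated by eye on a ten-point control scale after plants spent twelve to sixteen days in a greenhouse following soil or foliar treatment. Foliar sprays targeted plants at one to four leaves; all doses were formulated in a non-phytotoxic solvent with surfactant.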

blackgrass = assay: Test B pre/postemergence blackgrass; format: in vivo, Alopecurus myosuroides
Procedure, shortened: as §1

giant foxtail = assay: Test B pre/postemergence giant foxtail; format: in vivo, Setaria faberii
Procedure, shortened: as §1

morningglory = assay: Test B pre/postemergence morningglory; format: in vivo, Ipomoea hederacea
Procedure, shortened: as §1

pigweed = assay: Test B pre/postemergence pigweed; format: in vivo, Amaranthus retroflexus
Procedure, shortened: as §1

rape = assay: Test B pre/postemergence rape; format: in vivo, Brassica napus
Procedure, shortened: as §1

soybean = assay: Test B pre/postemergence soybean; format: in vivo, Glycine max
Procedure, shortened: as §1

sugar beet = assay: Test B pre/postemergence sugar beet; format: in vivo, Beta vulgaris
Procedure, shortened: as §1

velvetleaf = assay: Test B pre/postemergence velvetleaf; format: in vivo, Abutilon theophrasti
Procedure, shortened: as §1

wheat = assay: Test B pre/postemergence wheat; format: in vivo, Triticum aestivum
Procedure, shortened: as §1

wild oat = assay: Test B pre/postemergence wild oat; format: in vivo, Avena fatua
Procedure, shortened: as §1

purple nutsedge = assay: Test B pre/postemergence purple nutsedge; format: in vivo, Cyperus rotundus
Procedure, shortened: as §1

rice = assay: Test B flood test rice; format: in vivo, Oryza sativa
Procedure, shortened: (§2)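 Read-out is a visual response score from 0 (no effect) to 10 (complete control), assigned by comparison with untreated controls. Treatment was applied at the 2-leaf stage, and plants stayed in the greenhouse for twelve to sixteen days before scoring.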

smallflower flatsedge = assay: Test B flood test smallflower flatsedge; format: in vivo, Cyperus difformis
Procedure, shortened: as §2

duck salad = assay: Test B flood test duck salad; format: in vivo, Heteranthera limosa
Procedure, shortened: as §2

bamyardgrass = assay: Test B flood test barnyardgrass; format: in vivo, Echinochloa crus-galli
Procedure, shortened: as §2

[1] = Postemergence, Rate 62 g/ha, scale 0 to 10, 0 is no effect, 10 is complete control
[2] = Postemergence, Rate 250 g/ha, scale 0 to 10, 0 no effect, 10 complete control
[3] = Preemergence, Rate 62 g/ha, scale 0 to 10 (0 no effect, 10 complete control)
[4] = Preemergence, Rate 125 g/ha, scale 0 to 10 (0 no effect, 10 complete control)
[5] = Preemergence, Rate 250 g/ha, scale of 0 to 10 where 0 is no effect and 10 is complete control
[6] = Preemergence, Rate 500 g/ha, scale 0 (no effect) to 10 (complete control)
[7] = Rate 125 g/ha, Postemergence, scale 0 to 10, 0 no effect, 10 complete control
[8] = Rate 500 g/ha, Postemergence, scale 0 to 10, 0 no effect, 10 complete control
[9] = Rate 125 g/ha, Postemergence section (flood test species), scale 0 to 10, 0 no effect, 10 complete control
[10] = Rate 250 g/ha, headed Pre-emergence (flood test species), scale 0 to 10 (0 no effect, 10 complete control)
[11] = Rate 500 g/ha, headed Pre-emergence (flood test species), scale 0 to 10 (0 no effect, 10 complete control)
[12] = Rate 500 g/ha, listed under Postemergence (flood test species), scale 0 to 10, 0 no effect, 10 complete control
[13] = Rate 1000 g/ha, Pre-emergence (as headed), scale 0 to 10
[14] = Rate 2000 g/ha, Pre-emergence (as headed), scale 0 to 10
[15] = flood test, listed under Postemergence, Rate 250 g/ha, scale 0 to 10, 0 no effect, 10 complete control

CC(C)N(C(=O)n1oc(=O)n(Cc2cccs2)c1=O)c1ccc(F)cc1F [Compound 86]
Bedstraw plant response rating (bedstraw; [1]): 2
Bedstraw plant response rating (bedstraw; [2]): 6
Bedstraw plant response rating (bedstraw; [3]): 0
Plant response rating, Bedstraw (bedstraw; [4]): 0
Plant response rating, Bedstraw (bedstraw; [5]): 0
Bedstraw plant response rating (bedstraw; [6]): 0
Bedstraw plant response rating (bedstraw; [7]): 4
Bedstraw plant response rating (bedstraw; [8]): 8
Blackgrass plant response rating (blackgrass; [1]): 0
Blackgrass plant response rating (blackgrass; [2]): 1
Blackgrass plant response rating (blackgrass; [3]): 2
Plant response rating, Blackgrass (blackgrass; [4]): 3
Plant response rating, Blackgrass (blackgrass; [5]): 5
Blackgrass plant response rating (blackgrass; [6]): 8
Blackgrass plant response rating (blackgrass; [7]): 0
Blackgrass plant response rating (blackgrass; [8]): 3
Giant foxtail plant response rating (giant foxtail; [1]): 0
Giant foxtail plant response rating (giant foxtail; [2]): 3
Giant foxtail plant response rating (giant foxtail; [3]): 8
Plant response rating, Giant foxtail (giant foxtail; [4]): 9
Plant response rating, Giant foxtail (giant foxtail; [5]): 10
Giant foxtail plant response rating (giant foxtail; [6]): 10
Giant foxtail plant response rating (giant foxtail; [7]): 2
Giant foxtail plant response rating (giant foxtail; [8]): 5
Morningglory plant response rating (morningglory; [1]): 4
Morningglory plant response rating (morningglory; [2]): 7
Morningglory plant response rating (morningglory; [3]): 0
Plant response rating, Morningglory (morningglory; [4]): 0
Plant response rating, Morningglory (morningglory; [5]): 0
Morningglory plant response rating (morningglory; [6]): 0
Morningglory plant response rating (morningglory; [7]): 7
Morningglory plant response rating (morningglory; [8]): 8
Redroot pigweed plant response rating (pigweed; [1]): 0
Redroot pigweed plant response rating (pigweed; [2]): 5
Redroot pigweed plant response rating (pigweed; [3]): 2
Plant response rating, Redroot pigweed (pigweed; [4]): 4
Plant response rating, Redroot pigweed (pigweed; [5]): 8
Redroot pigweed plant response rating (pigweed; [6]): 8
Redroot pigweed plant response rating (pigweed; [7]): 0
Redroot pigweed plant response rating (pigweed; [8]): 7
Rape plant response rating (rape; [1]): 0
Rape plant response rating (rape; [2]): 2
Rape plant response rating (rape; [3]): 0
Plant response rating, Rape (rape; [4]): 0
Plant response rating, Rape (rape; [5]): 0
Rape plant response rating (rape; [6]): 4
Rape plant response rating (rape; [7]): 0
Rape plant response rating (rape; [8]): 4
Soybean plant response rating (soybean; [1]): 2
Soybean plant response rating (soybean; [2]): 2
Soybean plant response rating (soybean; [3]): 0
Plant response rating, Soybean (soybean; [4]): 0
Plant response rating, Soybean (soybean; [5]): 0
Soybean plant response rating (soybean; [6]): 0
Soybean plant response rating (soybean; [7]): 2
Soybean plant response rating (soybean; [8]): 3
Sugarbeets plant response rating (sugar beet; [1]): 0
Sugarbeets plant response rating (sugar beet; [2]): 3
Sugarbeets plant response rating (sugar beet; [3]): 0
Plant response rating, Sugarbeets (sugar beet; [4]): 0
Plant response rating, Sugarbeets (sugar beet; [5]): 3
Sugarbeets plant response rating (sugar beet; [6]): 3
Sugarbeets plant response rating (sugar beet; [7]): 3
Sugarbeets plant response rating (sugar beet; [8]): 6
Velvetleaf plant response rating (velvetleaf; [1]): 0
Velvetleaf plant response rating (velvetleaf; [2]): 0
Velvetleaf plant response rating (velvetleaf; [3]): 0
Plant response rating, Velvetleaf (velvetleaf; [4]): 0
Plant response rating, Velvetleaf (velvetleaf; [5]): 3
Velvetleaf plant response rating (velvetleaf; [6]): 5
Velvetleaf plant response rating (velvetleaf; [7]): 0
Velvetleaf plant response rating (velvetleaf; [8]): 2
Wheat plant response rating (wheat; [1]): 0
Wheat plant response rating (wheat; [2]): 0
Wheat plant response rating (wheat; [3]): 0
Plant response rating, Wheat (wheat; [4]): 0
Plant response rating, Wheat (wheat; [5]): 0
Wheat plant response rating (wheat; [6]): 0
Wheat plant response rating (wheat; [7]): 0
Wheat plant response rating (wheat; [8]): 0
Wild oats plant response rating (wild oat; [1]): 0
Wild oats plant response rating (wild oat; [2]): 0
Wild oats plant response rating (wild oat; [3]): 0
Plant response rating, Wild oats (wild oat; [4]): 0
Plant response rating, Wild oats (wild oat; [5]): 4
Wild oats plant response rating (wild oat; [6]): 5
Wild oats plant response rating (wild oat; [7]): 0
Wild oats plant response rating (wild oat; [8]): 0
Nutsedge plant response rating (purple nutsedge; [1]): 0
Nutsedge plant response rating (purple nutsedge; [2]): 0
Nutsedge plant response rating (purple nutsedge; [3]): 0
Plant response rating, Nutsedge (purple nutsedge; [4]): 0
Plant response rating, Nutsedge (purple nutsedge; [5]): 0
Nutsedge plant response rating (purple nutsedge; [6]): 0
Nutsedge plant response rating (purple nutsedge; [7]): 0
Nutsedge plant response rating (purple nutsedge; [8]): 0
Rice plant response rating (rice; [1]): 0
Rice plant response rating (rice; [9]): 0
Rice plant response rating (rice; [10]): 0
Plant response rating, Rice (rice; [11]): 0
Rice plant response rating (rice; [12]): 0
Rice plant response rating (rice; [13]): 0
Rice plant response rating (rice; [14]): 8
Rice plant response rating (rice; [15]): 0
S. Flatsedge plant response rating (smallflower flatsedge; [1]): 0
S. Flatsedge plant response rating (smallflower flatsedge; Pre-emergence, Rate 1000 g/ha, scale 0 to 10 (0 no effect, 10 complete control)): 0
S. Flatsedge plant response rating (smallflower flatsedge; [9]): 0
S. Flatsedge plant response rating (smallflower flatsedge; [10]): 0
Plant response rating, S. Flatsedge (smallflower flatsedge; [11]): 0
S. Flatsedge plant response rating (smallflower flatsedge; [12]): 0
S. Flatsedge plant response rating (smallflower flatsedge; [14]): 0
S. Flatsedge plant response rating (smallflower flatsedge; [15]): 0
Ducksalad plant response rating (duck salad; [1]): 0
Ducksalad plant response rating (duck salad; [9]): 0
Ducksalad plant response rating (duck salad; [10]): 0
Plant response rating, Ducksalad (duck salad; [11]): 0
Ducksalad plant response rating (duck salad; [12]): 0
Ducksalad plant response rating (duck salad; [13]): 0
Ducksalad plant response rating (duck salad; [14]): 0
Ducksalad plant response rating (duck salad; [15]): 0
Barnyardgrass plant response rating (bamyardgrass; [1]): 0
Barnyardgrass plant response rating (bamyardgrass; [9]): 0
Barnyardgrass plant response rating (bamyardgrass; [10]): 0
Plant response rating, Barnyardgrass (bamyardgrass; [11]): 0
Barnyardgrass plant response rating (bamyardgrass; [12]): 0
Barnyardgrass plant response rating (bamyardgrass; [13]): 0
Barnyardgrass plant response rating (bamyardgrass; Rate 2000 g/ha, Pre-emergence (as headed), scale 0 to 10, 0 no effect, 10 complete control): 0
Barnyardgrass plant response rating (bamyardgrass; [15]): 0
